Results: US20070003542A1, “Methods for treating diseases or conditions with peptide constructs” (priority 2002, published 2007)
Values joined by “and” are separate entries in the source; they are usually repeats but may differ in a detail not shown here. Equal values may be shown once.

Columns and labels:
B16 melanoma = experiment: allogeneic murine B16 melanoma protection model; format: in vivo, mice; details: in combination with allogeneic K1735 cells; B16 challenge; two experiments
Method: In particular, C57/b16 (H2^b) mice are vaccinated with the allogeneic melanoma K1735 (H2^k) at least twice on weekly intervals and then challenged with syngeneic B16 (H2^b) tumors. […] This is clear evidence of cross-priming and the existence of shared antigens.
Peptide constructs were prepared using as T cell binding ligand, either derG (SEQ ID NO. 7), Peptide G (SEQ ID NO. 5). The peptides are synthesized using the FMOC procedure and a double coupling protocol for the first 8 residues. Usually the peptide is prepared with the carboxyl terminus as an amide form. All of the peptides are purified using preparative HPLC, and analyzed by an analytical HPLC, amino acid analysis and mass spectrophotometer. The peptides are greater than 95%, usually greater than 98%, pure by HPLC criteria. The dry peptides are stored in vials with desiccant at −8° C. • 1) Eight groups of seven mice were injected with 200 μl of the vaccine as shown in FIG. 1. • 2) This was repeated after 7 days. • 3) A further 7 days later, mice were challenged with 200 μl saline containing 5×10^4 live B16 on the contralateral side to vaccination. • 4) Mice were sacrificed when tumor size exceeded 15 mm in either axis.
In order more precisely model the use of clinical allogeneic vaccines, a frozen vaccine was used in the mouse model wherein K-1735 cells were thawed just prior to use. […]

[1] = system: Plasmodium yoelii sporozoites; experiment: malaria protection assay, sporozoite challenge of immunized mice; format: in vivo; details: for Protection: 25 μg 2 times at 3 week intervals in TiterMax, 100 sporozoites
Method: In particular, mice were immunized twice at three week intervals with 25 μg of the subunits (W or G) used to make the L.E.A.P.S.™ construct (GW), and were challenged with 200 plasmodium yoelii sporozoites 2 weeks after the second immunization. Protective efficacy was evaluated by thin blood smears every other day starting 4 days after the challenge. Mice were considered protected if no blood stage parasites were detectable by 14 days after challenge.
(§1) Next using another antigen with B and T cell activity two inbred strains of mice, (A/J and Balb/c) were immunized twice at three week intervals with the L.E.A.P.S.™ constructs (J-GF/SF or der-SF/GF) or with the subunits (SF/GF, J and derG) used to make heteroconjugated peptides, and were challenged with 100 Plasmodium yoelii sporozoites 2 weeks after the second immunization and protection efficacy evaluated as before. Four days before challenge, serum was collected from individual animals, pooled and analyzed immediately for antibody to SF/GF peptide sera collected from immunized and protected mice 15 days post challenge were pooled and used for IFN-γ determination by ELISA procedures.
Groups of 10 mice were pre-treated 2 times at 3 week intervals with 25 μg of derG in TiterMax™ adjuvant and challenged with 100 Plasmodium yoelii sporozoites. Protective efficacy was evaluated as described above.

SF/GF peptide = experiment: serum antibody ELISA to SF/GF peptide; format: in vivo, mice; parameters: scale not given here; details: serum pool four days before challenge
Excerpt: as §1

HSV-1 = experiment: scarification zosteriform spread model of HSV infection; format: in vivo; details: A/J mice
Method: Groups of 4- to 6-wk old female A/J mice were subcutaneously inoculated once with 25 μg of the derG peptide emulsified in ISA51 adjuvant at a 1:1 ratio before challenge unless otherwise specified. Untreated mice and mice treated with adjuvant served as additional controls. The mice were challenged as specified in methods well known to those of ordinary skill in the art and as exemplified by Goel et al. (“The Ability of an HSV Strain to Initiate Zosteriform Spread Correlates with its Neuroinvasive Disease Potential”, Arch Virol 147:763-773 (2002)) and Goel et al., (“A Modification Of The Epidermal Scarification Model Of Herpes Simplex Virus Infection To Achieve A Reproducible And Uniform Progression Of Disease”, J Virol Meth 106; 153-8 (2002)).
In particular, hair is removed by shaving and then Nair® is applied. Twenty-fours later the depilated back of a mouse is scratched or abraded to expose the susceptible epidermal layer and virus rubbed in. To provide more detail, 10 μl of a virus suspension containing 6×10^4 plaque forming units was pipetted onto a 0.5 cm square of skin on mouse dorsal surface, which was previously abraded using sand paper glued on a pencil eraser. In untreated animals, the primary lesion developed at the inoculation site within 3 days and spread to the associated root, followed by anterograde transport and formation of secondary lesions at sites along the dermatome of the nerves within 5 days. In severe cases, animals died within 8 days post viral challenge. Disease progression and survival were monitored for at least 10 days. […] The progression and the severity of the lesions was scored from 0 to 7 (death). This model allows for discrimination of the disease progression (local site, neuronal spread, extent of lesion at the dermatome, death) at which the immune system blocks viral progression. In some experiments modifications in the timing, route of administration and mouse strain were evaluated for efficacy of CEL-1000.

IFN-γ = experiment: serum IFN-γ determination by ELISA; format: in vivo; details: A/J mice, serum pool 15 days post challenge
Excerpt: as §1

[2] = A/J mice, dose 1.25 μg (Table 6)
[3] = A/J mice, dose 2.5 μg (Table 6)
[4] = A/J mice, dose 5 μg, 100 sporozoites (Table 5)
[5] = A/J mice, dose 25 μg, 100 sporozoites (Table 5)
[6] = Balb/c mice, dose 25 μg, 100 sporozoites (Table 5)

Sequence	Protection (%) ([1]; A/J mice, dose 5 μg (Table 6))	Protection (%) [1, 4] [%]	Protection (%) [1, 5] [%]	Protection (%) [1, 6] [%]	Antibody EL1SA A490* (SF/GF peptide; A/J mice, dose 5 μg)	Antibody EL1SA A490* (SF/GF peptide; A/J mice, dose 25 μg)	Antibody EL1SA A490* (SF/GF peptide; Balb/c mice, dose 25 μg)	Protection (%) ([1]; A/J mice, dose 10 μg (Table 6))	also measured
DGQEEKAGVVSTGLIGGG [derG, modified fragment from MHC II β-chain (a.a. 135-149)]	100	100	100	0	2	2	4	–	Protection (B16 melanoma): 30% and 40%; Protection ([1]; A/J mice): 80; Protection (%) [1, 2]: 60%; Protection Protected/Tested [1, 2]: 6/10; Protection (%) [1, 3]: 80%; Protection Protected/Tested [1, 3]: 9/10; Protection Protected/Tested ([1]; A/J mice, dose 5 μg (Table 6)): 10/10; Protection Protected/Tested [1, 4]: 10/10; Protection Protected/Tested [1, 5]: 10/10; Protection ([1]; BALB/c mice): 0; Protection Protected/Tested [1, 6]: 0/10; Protection ([1]; C3H mice): 40; Protection ([1]; CAF1 hybrid mice): 40; protection from lethal HSV-1 challenge (HSV-1): protects A/J mice from lethal HSV-1 challenge; Protection (HSV-1; intramuscularly 2 weeks prior to challenge, without adjuvant, in aqueous solution): 100%; onset of symptoms, morbidity and mortality, zosteriform spread (HSV-1; single dose of 25 μg, timing of administration (FIG. 3)): delay in onset of symptoms; IFN-γ serum (IFN-γ; dose 5 μg): 40,000 pg/mL; IFN-γ serum (IFN-γ; dose 25 μg): 18,000 pg/mL
DGQEEKAGVVSTGLIGGGSFPMNEESPLGFSPEEMEAVASKFR [derG-GF/SF]	10	80	100	0	1,933	10,694	17,019	–	–
DLLKNGERIEKVEGGG SFPMNEESPLGFSPEEMEAVASKFR [J-GF/SF]	–	10	100	0	1,103	6,121	11,454	56	–
DLLKNGERIEKVEGGG [J, short fragment from β2-microglobulin (a.a. 38-50)]	–	10	10	0	1	2	2	10	–
SFPMNEESPLGFSPEEMEAVASKFR [GF/SF]	10	30	100	–	8,443	19,970	–	50	–
